Patent US20260008776A1 (HANGZHOU POLYMED BIOPHARMACEUTICALS, INC., priority 2023, published 2026)

What was measured:
[1] = Solid-state stability study, influencing factor test of crystal form A; format: physicochemical
Description: The glass dish or glass vial was then subjected to different environments in a constant temperature and humidity chamber. The conditions include: illumination: 4500±500 Lux; high temperature: 60° C. (sealed); and high humidity: 25° C. with relative humidity RH=90±5% (open).

[2] = Simulated granulation test (dry and wet grinding); format: physicochemical; settings: dry grinding 30 minutes; wet grinding with ethanol 30 minutes
Description: The purpose was to determine whether polymorphs, solvates, or amorphous forms were readily generated.

[3] = High-pressure property test; format: physicochemical; settings: hydraulic pressure 10 tons, 5 minutes
Description: The resulting solid was characterized by XRPD and other methods to evaluate its crystal form stability under high-pressure conditions.

[4] = Hygroscopicity study of crystal form A by dynamic vapor sorption (DVS); format: physicochemical; settings: for Desorption (%) / Sorption (%): DVS
Description: The important hygroscopicity of this compound was tested using a dynamic vapor sorption (DVS) instrument. DVS is a dynamic measurement method, so during the measurement process, the sample will undergo a change in mass. Like other types of research methods, DVS records the change in mass of the sample as the relative humidity changes.

[5] = Crystal form transformation, suspension competition experiments; format: physicochemical; settings: C, D, E, RT; for XRPD of solid after suspension competition: crystal forms A, G together (20 mg each), EtOH/H2O 1/1 (v/v); for XRPD: suspension competition of crystal forms A, G (20 mg each), DMSO/EtOH 1/8 (v/v) saturated solution 15 V
Description: In order to study the transformation relationship between various crystal forms and prepare various crystal forms under repeated conditions, a series of suspension competition experiments were carried out on crystal forms A, C, D, E, and G in different solvent systems. The specific experimental steps are as follows:
20 mg of each of crystal forms A, C, D, E, and G were weighed into 5 mL glass vials, and solvents (EtOH/H2O=1/1 (v/v) or DMSO (dimethyl sulfoxide)/EtOH=1/8 (v/v)) were added to form suspensions. The vials were then transferred to 25° C. and stirred for 72 hours. At various time points, the filter cakes were tested by XRPD.

[6] = Pharmacokinetic test in rats, oral gavage; format: in vivo, Sprague-Dawley rats; settings: male, Sprague-Dawley, rat, 40 mg/kg, rats, PO, 40 mpk, single dose, plasma
Description: (§1) Subsequently, 976 μL of Tween 80 was added and vortexed for 30 seconds, followed by the addition of 488 μL of Kolliphor HS15 (Kolliphor HS15 was used after heating and melting at 50° C.) and vortexed for 30 seconds. Finally, 7808 L of saline was added and vortexed for 30 seconds, followed by ultrasonication for 10 seconds to remove bubbles. The resulting administration preparation was a suspension.
as §1, with “1034” for “976”, “517” for “488”, “8270 μL” for “7808 L”
Species and Strain: Sprague-Dawley rats (SD rats) (Zhejiang Vital River Laboratory Animal Technology Co., Ltd.) • Animal Grade: SPF level
Planned initial body weight for administration: Male 200-250 g. Actual animal weights will be listed in the raw records. • Number and Gender of Animals: 3 (3 per group), male
Based on measured body weights, animals with similar weights were divided into groups of 3 animals each. Blank group animals were used for the collection of blank biological matrices.
• Administration route: Oral gavage • Administration volume: 10 mL/kg • Administration frequency: Single dose • Administration method: The test sample was administered orally via gavage using an appropriate syringe and gavage tube. When using a 2 mL or 5 mL syringe, the administration volume was recorded to one decimal place. When the minimum graduation value of the syringe was 0.2 mL and the administration volume was between two graduation marks, the higher volume was selected for administration.
Sample collection: Approximately 0.30 mL of whole blood was collected from the orbital vein of Group 1 animals at each time point.
The experimental animals were fasted for 12 hours before administration, with free access to water. Blood samples were collected from Group 1 animals (oral gavage group) at 5 min, 15 min, 30 min, 1 h, 2 h, 4 h, 6 h, 8 h, and 24 h after administration.
Sample processing: The collected venous blood was immediately transferred to EDTA-Na2-coated EP tubes (stored in a refrigerator or in an ice box with crushed ice at 2-8° C. prior to use), inverted at least 5 times for thorough mixing, and temporarily stored in an ice box with crushed ice. The collected whole blood was centrifuged at 2000 g for 10 min under 2-8° C. conditions within 2 h to separate plasma, which was then placed in newly labeled centrifuge tubes and stored at −20° C.
The pharmacokinetics group of the Department of Pharmacology and Toxicology conducted the analysis and measurement of all samples, followed by data summarization. Plasma concentration data were analyzed using the pharmacokinetic data analysis software WinNonlin. Non-compartmental analysis (NCA) was employed to calculate pharmacokinetic parameters such as t1/2, Cmax, Tmax, Vd, CL, AUC0-24, and F. The detailed results are shown in the following table: […]

MV4-11 cells = assay: Killing activity against MV4-11 cells (CellTiter-Glo, CTG); format: cell-based; settings: Homo sapiens, 72 hours incubation, read-out: IC50 of cell killing activity against MV4-11
Description: Reagent and consumable information is as follows: • MV4-11 Cells (ATCC, Cat. No. CRL-9591) • DPBS (Dulbecco's Phosphate Buffered Saline, Biosera, Cat. No. LM-S2041/500) • IMDM Medium (Thermo, Cat. No. 12440053) • Fetal Bovine Serum (Biological, Cat. No. 04-002-1A) • Penicillin-Streptomycin Solution (Invitrogen, Cat. No. 15140122) • Dimethyl Sulfoxide (Sigma, Cat. No. D2650) • CellTiter-Glo Luminescent Cell Viability Assay (Promega, Cat. No. G7573) • 96-Well Plate (Corning, Cat. No. 3903)
1. MV-4-11 cells were cultured in a complete IMDM medium (IMDM+10% fetal bovine serum+1% Penicillin-Streptomycin, a mixture of penicillin and streptomycin).
2. MV-4-11 cells with good cell status were collected and washed twice with DPBS (Dulbecco's phosphate buffered saline).
3. MV-4-11 cells were resuspended in a complete IMDM medium, adjusted to a cell density of 1.11×10^6 cells/mL, and 90 μL of the mixture was added to each well of a 96-well plate.
4. A 10-fold concentration of the compound solution was prepared in a complete IMDM medium, and 10 μL of the 10-fold concentration of the compound solution was added to each well of the 96-well plate. After mixing well, the 96-well plate was incubated in a 37° C., 5% CO2 incubator for 72 hours.
5. […]
6. The 96-well plate was removed and equilibrated at room temperature for 10 minutes, and then the chemiluminescence value was measured using a microplate reader.

**Q.** What does the source list for `CC(C)(O)CCn1cc2cc(NC(=O)c3coc(-c4ccnc(C(F)(F)F)c4)n3)c(C(C)(C)O)cc2n1` [crystal form A]?
**A.** Purity ([1]; High Relative Humidity (RH = 90 ± 5%, Open, 25° C.), 5 Days): 99.60%; Purity ([1]; High Relative Humidity (RH = 90 ± 5%, Open, 25° C.), 11 Days): 99.56%; Purity ([1]; High Temperature (60° C., Sealed), 5 Days): 99.26%; Purity ([1]; High Temperature (60° C., Sealed), 11 Days): 99.67%; Purity ([1]; Strong Illumination (Open), 5 Days): 99.67%; Purity ([1]; Strong Illumination (Open), 11 Days): 99.44%; Solid-state stability evaluation ([1]; illumination 4500±500 Lux, 60° C. sealed, 25° C. RH=90±5% open): good physical and chemical properties; Purity ([1]; initial, before stress): 99.70%; Crystal form after simulated granulation (XRPD, DSC) [2]: have not changed; Crystal form after high-pressure treatment (XRPD) [3]: has not changed; Change in crystal form before and after DVS testing (XRPD) [4]: no change in crystal form; Hygroscopicity (DVS), in words ([4]; 25° C., up to 90 RH): low hygroscopicity; Moisture sorption (DVS) ([4]; 25° C./90 RH, two sorption-desorption curves): less than 0.0400; Desorption (%) ([4]; first cycle, 0% RH): −0.01%; Sorption (%) ([4]; first cycle, 0% RH): 0.00%; Desorption (%) ([4]; first cycle, 10% RH): 0.00%; Sorption (%) ([4]; first cycle, 10% RH): −0.01%; Desorption (%) ([4]; first cycle, 20% RH): 0.00%; Sorption (%) ([4]; first cycle, 20% RH): 0.00%; Desorption (%) ([4]; first cycle, 30% RH): 0.00%; Sorption (%) ([4]; first cycle, 30% RH): 0.00%; Desorption (%) ([4]; first cycle, 40% RH): 0.01%; Sorption (%) ([4]; first cycle, 40% RH): 0.00%; Desorption (%) ([4]; first cycle, 50% RH): 0.02%; Sorption (%) ([4]; first cycle, 50% RH): 0.01%; Desorption (%) ([4]; first cycle, 60% RH): 0.02%; Sorption (%) ([4]; first cycle, 60% RH): 0.01%; Desorption (%) ([4]; first cycle, 70% RH): 0.03%; Sorption (%) ([4]; first cycle, 70% RH): 0.02%; Desorption (%) ([4]; first cycle, 80% RH): 0.03%; Sorption (%) ([4]; first cycle, 80% RH): 0.03%; Desorption (%) ([4]; first cycle, 90% RH): 0.03%; Sorption (%) ([4]; first cycle, 90% RH): 0.03%; Desorption (%) ([4]; second cycle, 0% RH): −0.01%; Sorption (%) ([4]; second cycle, 0% RH): −0.01%; Desorption (%) ([4]; second cycle, 10% RH): −0.01%; Sorption (%) ([4]; second cycle, 10% RH): −0.01%; Desorption (%) ([4]; second cycle, 20% RH): 0.00%; Sorption (%) ([4]; second cycle, 20% RH): −0.01%; Desorption (%) ([4]; second cycle, 30% RH): 0.00%; Sorption (%) ([4]; second cycle, 30% RH): −0.01%; Desorption (%) ([4]; second cycle, 40% RH): 0.01%; Sorption (%) ([4]; second cycle, 40% RH): 0.00%; Desorption (%) ([4]; second cycle, 50% RH): 0.01%; Sorption (%) ([4]; second cycle, 50% RH): 0.01%; Desorption (%) ([4]; second cycle, 60% RH): 0.02%; Sorption (%) ([4]; second cycle, 60% RH): 0.01%; Desorption (%) ([4]; second cycle, 70% RH): 0.03%; Sorption (%) ([4]; second cycle, 70% RH): 0.02%; Desorption (%) ([4]; second cycle, 80% RH): 0.03%; Sorption (%) ([4]; second cycle, 80% RH): 0.02%; Desorption (%) ([4]; second cycle, 90% RH): 0.03%; Sorption (%) ([4]; second cycle, 90% RH): 0.03%; Moisture Sorption ([4]; at 90% RH, DVS 25° C.): Moisture Sorption of 0.03% at 90% RH; XRPD of solid after suspension competition ([5]; 24 hours): Crystal Form C; XRPD of solid after suspension competition ([5]; 48 hours): Crystal Form C; XRPD of solid after suspension competition ([5]; 72 hours): Crystal Form C; XRPD ([5]; 24 hours): Crystal Form A; XRPD ([5]; 48 hours): Crystal Form A; XRPD ([5]; 72 hours): Crystal Form A

**Q.** Which AUC(0-t) ([6]; read-out: AUC0-24) does the source give for `CC(C)(O)CCn1cc2cc(NC(=O)c3coc(-c4ccnc(C(F)(F)F)c4)n3)c(C(C)(C)O)cc2n1` [formula I] here?
**A.** 4880 ng·h/mL

**Q.** And the Cmax ([6]; read-out: Cmax)?
**A.** 934 ng/mL

**Q.** What about the IC50 (MV4-11 cells) of the same compound?
**A.** 21 nM
